The target of one test is G810S mutant RET kinase (Homo sapiens, UniProt P07949, G810S). In words: biochemical.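 Note: HTRF KinEASE-TK kinase assay with recombinant enzyme, 1 h at 22 °C, dual-wavelength ratiometric read-out, percent of control (DMSO-only = 100, pre-quenched reaction = 0).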
In test [1] the target is T1, HEK-293 cells expressing a G810R mutant RET Kif5b-RET fusion protein (Homo sapiens, UniProt P07949, G810R).
T1 construct: KIF5B (N-terminal portion incl. coiled-coil); expressed in transfected cells; host or cells: HEK-293; the other entry of the earlier key: KIF5B (P33176, Kinesin-1 heavy chain)
T1 sequence (P07949 713-1063 G810R limits assumed): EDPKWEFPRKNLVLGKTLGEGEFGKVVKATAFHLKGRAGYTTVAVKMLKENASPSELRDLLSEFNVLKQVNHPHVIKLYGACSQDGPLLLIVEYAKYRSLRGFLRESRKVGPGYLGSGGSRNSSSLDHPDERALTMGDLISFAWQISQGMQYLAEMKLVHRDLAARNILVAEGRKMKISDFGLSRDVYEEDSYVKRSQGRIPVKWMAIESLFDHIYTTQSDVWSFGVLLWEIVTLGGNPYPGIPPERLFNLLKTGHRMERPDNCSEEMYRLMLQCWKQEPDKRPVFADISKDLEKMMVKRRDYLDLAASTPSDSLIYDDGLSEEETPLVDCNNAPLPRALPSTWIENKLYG
In words: RET G810R Mutant Cell Assay (phospho-RET Tyr1062). The following applies: HEK-293 Kif5b-RET G810R, 1 hour incubation, phospho-RET normalized to GAPDH. The format is cell-based. As for the experimental part: (§1) The cellular potency of compounds inhibiting RET kinase were determined in HEK-293 cells expressing a G810R or G810S mutant RET Kif5b-RET fusion protein. Briefly, HEK-293 cells expressing a G810R or G810S mutant RET Kif5b-RET fusion protein were plated at 50K cells/well in 96 well poly-D-Lysine coated plates the day prior to the assay. The cells were incubated for 1 hour with test compound in DMEM (Dulbecco's Modified Eagle Medium) at a final DMSO concentration of 0.5%. […] After 1 hour the media was removed, the cells were fixed with 3.8% formaldehyde for 20 min, washed with PBS, and permeabilized for 10 min with 100% methanol. The plates were then washed with PBS-0.05% Tween20, and blocked with LI-COR Blocking solution (LI-COR Catalog No. 927-40000) for 1 hour. Plates were washed with PBS-0.05% Tween20, then incubated with anti-phospho-RET (Tyr1062) (Santa Cruz Catalog No. sc-20252-R) antibody and anti-GAPDH (Millipore Catalog No. MAB374) antibody for 2 hours. The plates were washed with PBS-0.05% Tween20, and incubated with anti-rabbit 680 (Molecular Probes Catalog No. A21109) and anti-mouse 800 (LI-COR Catalog No. 926-32210) secondary antibodies for 1 hour. All antibodies were diluted in LI-COR Block containing 0.05% Tween. The plates were washed with PBS-0.05% Tween20,100 μL PBS was added to each well, and the plates were read on a LI-COR Aerius fluorescent plate reader. The phospho-RET signal was normalized to the GAPDH signal. […] The POC values are fit to a 4 parameter logistic curve. The IC50 value is the point where the curve crosses 50 POC.

In the next test the target is RET kinase V804M (Homo sapiens, UniProt P07949, V804M). Put plainly: RET Enzyme Assay (CisBio HTRF KinEASE-TK), V804M. The following applies: read-out: RET V804M Enz FRET IC50. The format is biochemical.
Chain of RET kinase V804M (P07949 29-1114 V804M): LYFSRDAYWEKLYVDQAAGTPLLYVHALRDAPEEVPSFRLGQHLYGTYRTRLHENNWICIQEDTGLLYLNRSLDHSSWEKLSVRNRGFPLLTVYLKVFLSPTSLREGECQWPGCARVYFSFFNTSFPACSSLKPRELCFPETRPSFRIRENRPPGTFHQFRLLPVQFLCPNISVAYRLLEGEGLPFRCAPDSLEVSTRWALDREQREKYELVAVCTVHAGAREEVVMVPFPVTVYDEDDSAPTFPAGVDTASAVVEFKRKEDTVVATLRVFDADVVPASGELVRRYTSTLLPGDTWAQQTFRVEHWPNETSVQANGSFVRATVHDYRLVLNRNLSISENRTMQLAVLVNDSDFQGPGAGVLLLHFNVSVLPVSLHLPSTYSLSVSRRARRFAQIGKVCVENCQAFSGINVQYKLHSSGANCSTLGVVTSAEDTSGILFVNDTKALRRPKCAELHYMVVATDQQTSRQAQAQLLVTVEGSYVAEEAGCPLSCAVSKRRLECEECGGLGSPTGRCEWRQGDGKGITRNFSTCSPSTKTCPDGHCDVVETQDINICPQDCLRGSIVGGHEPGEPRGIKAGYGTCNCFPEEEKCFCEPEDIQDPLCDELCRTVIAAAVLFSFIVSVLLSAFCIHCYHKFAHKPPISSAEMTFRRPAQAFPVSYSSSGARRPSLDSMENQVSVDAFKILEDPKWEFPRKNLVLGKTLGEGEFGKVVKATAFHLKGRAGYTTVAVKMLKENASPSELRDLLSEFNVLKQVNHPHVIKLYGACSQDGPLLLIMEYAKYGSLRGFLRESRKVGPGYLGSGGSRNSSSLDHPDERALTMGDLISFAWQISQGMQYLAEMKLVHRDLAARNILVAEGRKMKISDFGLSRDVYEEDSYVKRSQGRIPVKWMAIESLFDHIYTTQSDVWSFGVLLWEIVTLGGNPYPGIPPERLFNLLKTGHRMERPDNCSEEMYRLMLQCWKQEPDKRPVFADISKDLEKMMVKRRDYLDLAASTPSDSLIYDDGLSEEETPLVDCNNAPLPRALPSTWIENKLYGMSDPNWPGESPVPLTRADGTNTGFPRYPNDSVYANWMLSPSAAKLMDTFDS
Another test addresses RET kinase Wild Type (Homo sapiens, UniProt P07949). In words: biochemical.
Test [2] addresses T2, HEK-293 cells expressing a Kif5b-RET fusion protein (Homo sapiens, UniProt P07949).
T2 construct: KIF5B (N-terminal portion incl. coiled-coil); expressed in transfected cells; host or cells: HEK-293; the other entry of the earlier key: KIF5B (P33176, Kinesin-1 heavy chain)
T2 sequence (P07949 713-1063 limits assumed): T1 sequence (P07949 713-1063 G810R limits assumed) with R98G
In words: RET Cell Assay (phospho-RET Tyr1062). The format is cell-based. The settings on record: HEK-293 Kif5b-RET, 1 hour incubation, phospho-RET normalized to GAPDH; read-out: KIF5B-RET pTYR1062 Cell IC50. The protocol: as §1, with “a” for “a G810R or G810S mutant RET”, “PBS is” for “PBS was”, “values were” for “values are”

The target of a further test is G810R mutant RET kinase (Homo sapiens, UniProt P07949, G810R). In words: biochemical.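 Note: HTRF KinEASE-TK enzymatic assay with 1 nM recombinant RET G810R, 1 h at 22 °C, dual-wavelength ratiometric readout, 100% control without compound, 0% from pre-quenched reactions.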
Chain of G810R mutant RET kinase (P07949 29-1114 G810R): as the sequence (P07949 29-1114 V804M) above, with M776V, G782R counted along it

Positions count from the first letter of the chain named.

Chain of RET kinase Wild Type (P07949 29-1114): as the sequence (P07949 29-1114 V804M) above, with M776V counted along it
Chain of G810S mutant RET kinase (P07949 29-1114 G810S): as the sequence (P07949 29-1114 V804M) above, with M776V, G782S counted along it
Procedure for G810S mutant RET kinase: (§2) The potency of compounds inhibiting several different RET kinase forms (Wild Type, V804M, G810R, & G810S) were determined using CisBio's HTRF® KinEASE™-TK assay technology. […] After a 1 hour incubation at 22° C., the extent of reaction was determined using a PerkinElmer EnVision multimode plate reader via HTRF dual wavelength detection, and the percent of control (POC) was calculated using a ratiometric emission factor. One hundred POC was determined using DMSO only samples (no compound present), and 0 POC was determined using pre-quenched control reactions.
The potency of a compound inhibiting G810R or G810S mutant RET kinase was determined using CisBio's HTRF® KinEASE™-TK assay technology. The assays contained G810R or G810S mutant RET produced at Array Biopharma, Inc. (1 nM enzyme). […] After a 1-h incubation at 22° C., the extent of reaction was determined using a PerkinElmer EnVision multimode plate reader via HTRF dual wavelength detection, and the percent of control (POC) was calculated using a ratiometric emission factor. One hundred POC was determined using no test compounds, and 0 POC was determined using pre-quenched control reactions.
Procedure for RET kinase V804M: as §2

As for `COC1CCc2c(c3c(N)ncnc3n2C(C)C)-c2noc(C3CC3)c21` (racemic) [Example 53, 3-cyclopropyl-7-isopropyl-4-methoxy-4,5,6,7-tetrahydroisoxazolo[4″,3″:6′,7′]cyclohepta[1′,2′:4,5]pyrrolo[2,3-d]pyrimidin-11-amine], the IC50 is 94 nM against G810S mutant RET kinase; 485 nM in test [1]; 34 nM at RET kinase V804M; 16 nM on RET kinase Wild Type; 64 nM in test [2]; 102 nM against G810R mutant RET kinase.

On to `CCN1Cc2c(c3c(N)ncnc3n2C(C)C)-c2noc(C3CC3)c2C1=O` [Example 1, 11-amino-3-cyclopropyl-5-ethyl-7-isopropyl-6,7-dihydroisoxazolo[4,3-c]pyrimido[5′,4′:4,5]pyrrolo[3,2-e]azepin-4(5H)-one], for which the IC50 was found to be 117 nM against G810S mutant RET kinase; 179 nM in test [1]; 202 nM on RET kinase V804M; 52 nM against RET kinase Wild Type; 17 nM in test [2]; 145 nM against G810R mutant RET kinase.

Turning to `CCCN1Cc2c(c3c(N)ncnc3n2C(C)C)-c2noc(C3CC3)c2C1=O` [Example 4], the IC50 against G810S mutant RET kinase amounted to 135 nM; in test [1] it was 290 nM; on RET kinase V804M, 106 nM; on RET kinase Wild Type, 16 nM; in test [2], 60 nM; at G810R mutant RET kinase, 157 nM.

Consider `CC(C)n1c2c(c3c(N)ncnc31)-c1noc(C3CC3)c1C(=O)N(CC1CC1)C2` [Example 5, 11-amino-3-cyclopropyl-5-(cyclopropylmethyl)-7-isopropyl-6,7-dihydroisoxazolo[4,3-c]pyrimido[5′,4′:4,5]pyrrolo[3,2-e]azepin-4(5H)-one], for which the half-maximal inhibitory concentration (IC50) worked out at 138 nM on G810S mutant RET kinase; 459 nM in test [1]; 99 nM at RET kinase V804M; 17 nM against RET kinase Wild Type; 75 nM in test [2]; 157 nM against G810R mutant RET kinase.

As for `CC(C)n1c2c(c3c(N)ncnc31)-c1noc(C3CC3)c1C(=O)N(Cc1ccccc1)C2` [Example 7, 11-amino-5-benzyl-3-cyclopropyl-7-isopropyl-6,7-dihydroisoxazolo[4,3-c]pyrimido[5′,4′:4,5]pyrrolo[3,2-e]azepin-4(5H)-one], the IC50 was found to be 356 nM against G810S mutant RET kinase; 660 nM in test [1]; 340 nM at RET kinase V804M; 91 nM on RET kinase Wild Type; 135 nM in test [2]; 171 nM against G810R mutant RET kinase.

Consider `CC(C)n1c2c(c3c(N)ncnc31)-c1noc(C3CC3)c1C(=O)N(CCc1ccccc1)C2` [Example 8, 11-amino-3-cyclopropyl-7-isopropyl-5-phenethyl-6,7-dihydroisoxazolo[4,3-c]pyrimido[5′,4′:4,5]pyrrolo[3,2-e]azepin-4(5H)-one], for which the IC50 against G810S mutant RET kinase came to 123 nM; in test [1], 302 nM; on RET kinase V804M, 227 nM; against RET kinase Wild Type it was 41 nM; in test [2] it was 91 nM; against G810R mutant RET kinase it was 95 nM.

As for `CC(C)n1c2c(c3c(N)ncnc31)-c1noc(C3CC3)c1S(=O)(=O)N(C)C2` [Example 22, 11-amino-3-cyclopropyl-7-isopropyl-5-methyl-6,7-dihydro-5H-isoxazolo[3,4-f]pyrimido[5′,4′:4,5]pyrrolo[2,3-d][1,2]thiazepine 4,4-dioxide], the IC50 on G810S mutant RET kinase turned out to be 75 nM; in test [1] it was 496 nM; at RET kinase V804M, 323 nM; on RET kinase Wild Type, 31 nM; in test [2], 65 nM; at G810R mutant RET kinase, 102 nM.

Turning to `CC(C)n1c2c(c3c(N)ncnc31)-c1noc(C3CC3)c1C(=O)OC2` [Example 24, 11-amino-3-cyclopropyl-7-isopropyl-6,7-dihydro-4H-isoxazolo[3″,4″:5′,6′]oxepino[4′,3′:4,5]pyrrolo[2,3-d]pyrimidin-4-one], the IC50 at G810S mutant RET kinase worked out at 87 nM; in test [1], 181 nM; at RET kinase V804M, 92 nM; on RET kinase Wild Type, 25 nM; in test [2] it was 40 nM; against G810R mutant RET kinase, 70 nM.

On to `CC(C)n1c2c(c3c(N)ncnc31)-c1noc(C3CC3)c1C=CC2` [Example 30, 3-cyclopropyl-7-isopropyl-6,7-dihydroisoxazolo[4″,3″:6′,7′]cyclohepta[1′,2′:4,5]pyrrolo[2,3-d]pyrimidin-11-amine], for which the IC50 came to 300 nM against G810S mutant RET kinase; 2160 nM in test [1]; 259 nM on RET kinase V804M; 93 nM on RET kinase Wild Type; 155 nM in test [2]; 180 nM on G810R mutant RET kinase.

`CC(C)n1c2c(c3c(N)ncnc31)-c1cc3ccccc3n1C(=O)CC2` [Example 68, 1-amino-5-isopropyl-6,7-dihydropyrimido[5″,4″:4′,5′]pyrrolo[3′,2′:3,4]azepino[1,2-a]indol-8(5H)-one]: the IC50 against G810S mutant RET kinase is 1160 nM; in test [1], 4750 nM; against RET kinase Wild Type it was 386 nM; in test [2] it was 1780 nM; on G810R mutant RET kinase it was 485 nM.

Consider `CC(C)n1c2c(c3c(N)ncnc31)-c1cc3ccccc3n1C(=O)NC2` [Example 69, 1-amino-5-isopropyl-6,7-dihydropyrimido[5″,4″:4′,5′]pyrrolo[2′,3′:5,6][1,3]diazepino[1,7-a]indol-8(5H)-one], for which the IC50 at G810S mutant RET kinase came to 65 nM; in test [1] it was 394 nM; against RET kinase Wild Type, 34 nM; in test [2] it was 103 nM; against G810R mutant RET kinase, 47 nM.

With `Cc1cc2n(n1)C(=O)NCc1c-2c2c(N)ncnc2n1C(C)C` [Example 105, 12-amino-8-isopropyl-2-methyl-7,8-dihydropyrazolo[1,5-c]pyrimido[5′,4′:4,5]pyrrolo[3,2-e][1,3]diazepin-5(6H)-one 2,2,2-trifluoroacetate], the IC50 against G810S mutant RET kinase was determined as 2580 nM; in test [1], 15500 nM; on RET kinase Wild Type it was 639 nM; in test [2], 1360 nM; on G810R mutant RET kinase, 742 nM.

Values taken from patent US11964988B2, “Fused heterocyclic compounds as RET kinase inhibitors” (ARRAY BIOPHARMA INC., priority 2018, dated 2024).
